Source: ChEMBL document CHEMBL1151347, “Lignans From Justicia flava” (J Nat Prod, 1980)
The source made the active and inactive calls. The rule behind the calls is not given here.

Tests used:
Mus musculus [1] = species on record: Mus musculus; assay: Effect on central nervous system in mouse assessed as decrease in motor activity; assay type: functional, organism-based
Mus musculus [2] = species on record: Mus musculus; assay: Effect on central nervous system in mouse assessed as ataxia; assay type: functional, organism-based

| Structure (SMILES) | Activity (Mus musculus [1]) | Activity (Mus musculus [2]) |
| --- | --- | --- |
| COc1cc([C@H]2c3cc(O)c(OC)cc3C[C@@H](CO)[C@@H]2CO)ccc1O | inactive | inactive |
| COc1cc(OC)c2c(-c3ccc4c(c3)OCO4)c3c(c(OC)c2c1O)COC3=O | inactive | inactive |
| O=C1OCc2c1cc1ccc3c(c1c2-c1ccc2c(c1)OCO2)OCO3 | inactive | inactive |
